In patent US20060252708A1, “Compositions of flavones and long chain fatty acid derivatives isolated from plants and methods related thereto for the control of prostate disorders” (priority 2005, published 2006):

Legend:
Format in all cases: cell-based
[1] = tested on: secreting PSA from LNCaP cells; assay: ELISA of PSA secreted from LNCaP cells (inhibition of PSA secretion); details: for Rate of inhibition (%): Table 2, PSA secretion; for inhibition at 1 µg/mL: concentration 1 ug/ml; for inhibition at 3 µg/mL: concentration 3 ug/ml; for inhibition at 6.25 µg/mL: concentration 6.25 ug/ml
Experimental: For example, in cultured androgen-dependent prostate cancer cells as shown in An enzyme-linked immunoadsorbent assay was adopted to determine the level of secreting PSA from LNCaP cells, an androgen-dependent prostate epithelia cancer cells, by the above-mentioned flavones. At first, 100 μl polyclonal Ab at 4 μg/m was added to coat the microplate. They were placed for 12 hours at 4° C., and then washed by PBST and sealed the plate with PBST for 1 hour at 37° C. Supernatants from flavones or mock-treated cells were added into the plate to incubate at water bathed for 2 hours at 37° C. After washing, primary Ab at 200 ng/ml was added and incubated for 1 hour at 37° C. After washing, secondary Ab at 1:8000 was then added and incubated for 1 hour at room temperature. After washing, color reaction substrate was added and incubated for 10 min at dark, then added 2 N sulfuric acid to measure absorption at 492 nm.

androgen receptor (AR) = molecular target: T1, androgen receptor (AR) (Homo sapiens, UniProt P10275); assay: Androgen receptor activation, luciferase reporter gene system in U2OS cells; details: 10 nM andrusol, 24 hr incubation, FIG. 1 and FIG. 4
T1 construct: The full length AR cDNA was cloned from human's adipose tissue using PCR; expressed in transfected cells; host or cells: U2OS cells
T1 sequence (P10275 1-920): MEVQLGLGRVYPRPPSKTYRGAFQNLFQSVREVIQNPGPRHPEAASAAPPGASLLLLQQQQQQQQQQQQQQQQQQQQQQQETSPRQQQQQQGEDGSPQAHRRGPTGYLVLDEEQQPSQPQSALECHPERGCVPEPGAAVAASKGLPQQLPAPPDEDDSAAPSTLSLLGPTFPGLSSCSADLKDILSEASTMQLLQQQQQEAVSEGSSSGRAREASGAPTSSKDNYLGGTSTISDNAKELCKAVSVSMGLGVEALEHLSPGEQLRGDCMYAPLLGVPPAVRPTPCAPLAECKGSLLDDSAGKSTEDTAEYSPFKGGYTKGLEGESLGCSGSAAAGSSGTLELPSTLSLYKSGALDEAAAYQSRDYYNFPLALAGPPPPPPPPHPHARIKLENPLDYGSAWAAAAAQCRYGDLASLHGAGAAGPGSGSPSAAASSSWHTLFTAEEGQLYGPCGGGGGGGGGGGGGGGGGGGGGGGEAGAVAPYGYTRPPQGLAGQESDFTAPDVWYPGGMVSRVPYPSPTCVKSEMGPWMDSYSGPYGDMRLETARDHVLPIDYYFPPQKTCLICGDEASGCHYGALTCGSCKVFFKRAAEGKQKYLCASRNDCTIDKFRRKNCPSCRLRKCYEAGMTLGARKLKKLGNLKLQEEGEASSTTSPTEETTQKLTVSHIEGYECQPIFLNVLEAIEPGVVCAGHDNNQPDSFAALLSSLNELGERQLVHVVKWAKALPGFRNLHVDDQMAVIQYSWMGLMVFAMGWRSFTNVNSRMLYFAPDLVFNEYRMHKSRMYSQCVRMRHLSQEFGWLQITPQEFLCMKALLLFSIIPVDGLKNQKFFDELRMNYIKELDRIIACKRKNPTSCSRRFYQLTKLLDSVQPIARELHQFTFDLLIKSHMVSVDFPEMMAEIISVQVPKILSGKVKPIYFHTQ
Experimental: The activation of AR was performed using a luciferase reporting gene system. The full length AR cDNA was cloned from human's adipose tissue using PCR. The primer sequence 1 used was 5′-[…]-3′ (SEQ ID NO:1); the primer sequence 2 used was 5′-[…]-3′ (SEQ ID NO:2). The amplified PCR products were inserted into an expression vector, and then sequenced. The reporter genes were constructed using luciferase detected carrier pGL3-Promoter manufactured by Promega Ltd. Three copies of AR response element were inserted into upstream of pGL3-promoter (element sequence 3 used was 5′-[…] -3′) (SEQ ID NO:3). The co-transfection experiments were conducted in 96-well plates using U2OS cells. 24 hours after transfection, 10 nM andrusol, DMSO (0.1%), and testing compounds were added into cell culture for further 24 hr incubation.

[2] = molecular target: T2, estrogen receptor-α (ERα) (Homo sapiens, UniProt P03372); assay: Estrogen receptor-α activation, luciferase reporter gene system in U2OS cells; details: 10 nM estradiol, 24 hr incubation, FIG. 2
T2 construct: The full length ER-α and ER-β cDNA were separately cloned from human adipose tissue using PCR method; expressed in transfected cells; host or cells: U2OS cells
T2 sequence (P03372 1-595): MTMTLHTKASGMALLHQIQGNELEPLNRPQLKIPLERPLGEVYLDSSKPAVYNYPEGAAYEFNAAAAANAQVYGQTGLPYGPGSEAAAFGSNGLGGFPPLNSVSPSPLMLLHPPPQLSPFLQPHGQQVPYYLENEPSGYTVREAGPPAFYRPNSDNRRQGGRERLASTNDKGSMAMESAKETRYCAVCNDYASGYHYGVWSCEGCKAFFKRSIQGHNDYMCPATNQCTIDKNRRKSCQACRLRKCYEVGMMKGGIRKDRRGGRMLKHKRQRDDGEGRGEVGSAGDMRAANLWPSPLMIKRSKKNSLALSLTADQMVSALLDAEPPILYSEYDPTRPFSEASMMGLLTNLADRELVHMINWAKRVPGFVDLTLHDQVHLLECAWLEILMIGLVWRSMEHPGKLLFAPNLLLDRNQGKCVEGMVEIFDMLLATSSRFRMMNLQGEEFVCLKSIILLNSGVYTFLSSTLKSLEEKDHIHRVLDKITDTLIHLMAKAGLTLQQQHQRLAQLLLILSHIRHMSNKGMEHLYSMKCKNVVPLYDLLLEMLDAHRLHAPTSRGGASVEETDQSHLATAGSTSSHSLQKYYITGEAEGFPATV
Experimental: (§1) The activation evaluation of the ERs were performed using a luciferase reporter gene system. The full length ER-α and ER-β cDNA were separately cloned from human adipose tissue using PCR method. The primer sequence 4 (ERα) used was 5′-[…]-3′ (SEQ ID NO:4); the primer sequence 5 (ERα) used was 5′-[…]-3′(SEQ ID NO:5); the primer sequence 6 (ERβ) used was 5′-[…]-3′ (SEQ ID NO:6); the primer sequence 7 (ERβ) used was 5′-[…]-3′(SEQ ID NO:7). The amplified PCR products were inserted into expression vector and confirmed by sequencing. The report genes were constructed by using luciferase detected carrier pGL3-Promoter from Promega Ltd. Three copies of ER response element were inserted into the upstream of pGL3-Promoter (sequence 8 used was 5′-[…] -3′ (SEQ ID NO:8)). The co-transfection experiments were conducted in 96-well plates using U2OS cells. 24 hours after transfection, 10 nM estradiol, DMSO (0.1%), and testing compounds were added into cell culture for further 24 hr incubation.

[3] = molecular target: T3, estrogen receptor-β (ERβ) (Homo sapiens, UniProt Q92731); assay: Estrogen receptor-β activation, luciferase reporter gene system in U2OS cells; details: 10 nM estradiol, 24 hr incubation, FIG. 3
T3 construct: The full length ER-α and ER-β cDNA were separately cloned from human adipose tissue using PCR method; expressed in transfected cells; host or cells: U2OS cells
T3 sequence (Q92731 whole entry): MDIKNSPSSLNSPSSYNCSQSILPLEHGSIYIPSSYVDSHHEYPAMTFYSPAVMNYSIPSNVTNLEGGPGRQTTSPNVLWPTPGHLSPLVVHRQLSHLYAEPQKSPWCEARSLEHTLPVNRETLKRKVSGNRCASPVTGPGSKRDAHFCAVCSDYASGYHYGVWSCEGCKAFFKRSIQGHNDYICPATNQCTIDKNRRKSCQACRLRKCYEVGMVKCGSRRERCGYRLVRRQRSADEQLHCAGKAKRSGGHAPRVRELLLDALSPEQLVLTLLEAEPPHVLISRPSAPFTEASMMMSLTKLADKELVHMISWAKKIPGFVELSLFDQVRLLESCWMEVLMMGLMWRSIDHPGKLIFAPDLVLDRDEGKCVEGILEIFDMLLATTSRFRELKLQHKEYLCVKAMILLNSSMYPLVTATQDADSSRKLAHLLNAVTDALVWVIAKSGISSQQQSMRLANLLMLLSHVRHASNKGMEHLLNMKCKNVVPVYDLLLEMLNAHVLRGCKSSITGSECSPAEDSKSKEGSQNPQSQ
Experimental: as §1

[4] = Homo sapiens, PSA secretion, read-out: Rate of inhibition (%)
[5] = Homo sapiens, PSA secretion, concentration 12.5 ug/ml, read-out: Rate of inhibition (%)
[6] = Homo sapiens, PSA secretion, concentration 25 ug/ml, read-out: Rate of inhibition (%)
[7] = Homo sapiens, PSA secretion, concentration 50 ug/ml, read-out: Rate of inhibition (%)

Row | Molecule | Rate of inhibition (%) ([1]; concentration 5 ug/ml) | Rate of inhibition (%) ([1]; concentration 12.5 ug/ml) | Rate of inhibition (%) ([1]; concentration 25 ug/ml) | Rate of inhibition (%) ([1]; concentration 50 ug/ml) | Inhibition of androgen receptor (AR) activation (androgen receptor (AR)) | inhibition at 1 µg/mL [1, 4] | inhibition at 3 µg/mL [1, 4] | inhibition at 6.25 µg/mL [1, 4] | inhibition at 12.5 µg/mL [1, 5] | inhibition at 25 µg/mL [1, 6] | inhibition at 50 µg/mL [1, 7] | Effect on estrogen receptor-α (ERα) activation [2] | Effect on estrogen receptor-β (ERβ) activation [3] | further results
1 | CCC=CCC=CCC=CCCCCCCCC(=O)NCCO [Long chain amide, N-(2-ethoxyl)-9,12,15-linolenamide] | 9.7% | 31% | 63% | 71% | Inhibition of androgen receptor (AR) activation | – | – | – | – | – | – | – | – | Rate of inhibition (%) ([1]; concentration 20 ug/ml): 52%
2 | CCC=CCC=CCC=CCCCCCCCC(=O)OC[C@@]1(O)O[C@H](CO)[C@@H](O)[C@@H]1O [Octadecatrienoic acid fructoside, 9,12,15-octadecatrienoic acid 1-O-β-D-fructoside] | 23% | 57% | 76% | – | Inhibition of androgen receptor (AR) activation | – | – | – | – | – | – | – | – | Rate of inhibition (%) ([1]; concentration 10 ug/ml): 40%
3 | O=c1c(O)c(-c2ccc(O)cc2)oc2cc(O)cc(O)c12 [kaempferol] | – | – | – | – | – | 53% | 60% | 69% | 65% | 66% | 89% | – | – | –
4 | O=c1cc(-c2ccc(O)c(O)c2)oc2cc(O)cc(O)c12 [luteolin] | – | – | – | – | Inhibition of androgen receptor (AR) activation | 37% | 48% | – | – | – | – | Inhibition | Inhibition | inhibition at 10 µg/mL ([1]; Homo sapiens, PSA secretion, concentration 10 ug/ml, read-out: Rate of inhibition (%)): 57%; inhibition at 20 µg/mL ([1]; Homo sapiens, PSA secretion, concentration 20 ug/ml, read-out: Rate of inhibition (%)): 67%; inhibition at 40 µg/mL ([1]; Homo sapiens, PSA secretion, concentration 40 ug/ml, read-out: Rate of inhibition (%)): 100%
5 | O=C1C[C@@H](c2ccc(O)cc2)Oc2cc(O)cc(O)c21 [naringenin] | – | – | – | – | Inhibition of androgen receptor (AR) activation | – | – | 78% | 84% | 87% | 88% | Inhibition | Inhibition | –
6 | hexadecanoic 1-O-β-D-fructoside [Hexadecanoic fructoside] | 4.5% | 8.4% | 26% | 42% | Inhibition of androgen receptor (AR) activation | – | – | – | – | – | – | – | – | Rate of inhibition (%) ([1]; concentration 100 ug/ml): 76%
